Results as given in US20120196918A1, “PREVENTING ISLET INFLAMMATION AND DYSFUNCTION AND MAINTAINING PROPER GLUCOSE LEVELS BY CONTROLLING eIF5A AND ITS HYPUSINATION” (priority 2009, published 2012).

System: eIF5A-Hyp binding to mRNA
Test: RNA immunoprecipitation with eIF5A antibody in cytokine-treated INS-1 cells
Format: cell-based, rat
Settings: GC7 overnight, cytokines 4 h
Text: The retention of both Nos2 transcripts and eIF5A in the nucleus upon inhibition of hypusination is consistent with a close relationship between the two molecules, such that eIF5A may serve to chaperone Nos2 transcripts from the nucleus to the cytoplasm in response to cytokine stimulation. eIF5A-Hyp binds to RNAs that contain the consensus sequence 5′-AAAUGU-3′ (47), which is present in the Nos2 mRNA. To determine if eIF5A-Hyp binds Nos2 mRNA, RNA immunoprecipitation assays using INS-1 cell total RNA were performed. […] In contrast, no co-precipitation of other NFkB target and non-target genes was observed.
RNA immunoprecipitation (RIP) assays: RIP assays from 1×10^7 formaldehyde cross-linked INS-1 cells were performed as described (75). Isotype-matched antibodies against eIF5A and the FLAG-M2 epitope (for control immunoprecipitations) were used at a final dilution of 1:100. Immunoprecipitated RNA was reversed transcribed and subjected to quantitative PCR amplification for selected genes as described above. All data represent the average of triplicate determinations from at least 3 independent RIP assays.

## NCCCCCCCN=C(N)N [GC7]
  co-precipitation of mRNA with eIF5A antibody: no co-precipitation of any mRNA species
